# Legend:
# LLC-CR cells = conditions: cited from earlier work
# [1] = test system: LLC (mouse Lewis lung cancer cells); assay: Growth inhibition of parental LLC cells; assay type: cell-based; conditions: 24 h
# Protocol: Cisplatin resistant mouse cell lines (LLC-CR) were derived from LLC (mouse Lewis lung cancer cells (epidermoid carcinoma), ATCC) through treatment with increasing doses of cisplatin intermittently. LLC-CR clones were maintained in half GI50 dosage concentration. […] The cultures were observed daily and allowed to grow until they reached an initial cell density. […] After the cells recovered from cisplatin toxicity, they were treated again with increasing dosage of cisplatin for 24 h. These cells are seeded at 500-1000 cells per dish and cultured for 5-7 days. Clones are selected and expanded as well as tested for cisplatin sensitivity. Similar processes of exposure are carried out for a third and fourth time to generate higher resistant clones. At the end, the resistance clones (LLC-CR) were maintained in media completed with 1 μg/ml (half GI50 dosage) of cisplatin.
# Pan02 tumors = assay: Tumor volume, mouse subcutaneous Pan02 syngeneic model of pancreatic cancer; assay type: in vivo; conditions: for tumor volume, Mean: oxaliplatin 6 mg/kg i.p. BIW, AT-0174 120 mg/kg p.o. QD Day 7-32
# Protocol: (§1) Female C57BL/6 mice were used in the study, with ad libitum access to rodent food and water throughout the study period.
# (§2) Murine pancreatic Pan02 cancer cells were cultured in a 37° C. incubator containing 5% CO2 with 10% FBS in DMEM medium. The cells were sub-cultured within 10 passages before inoculated into the mice. 1*10^6 PANC02 cells in 100 μL serum-free medium mixed with Matrigel (v/v 1:1) were subcutaneously inoculated at the right flank of each mouse under anesthetized with 2-5% isoflurane before inoculation.
# Tumor volume: The tumor volume (V) was calculated as follows: V=(length×width^2)/2. Tumor volume was measured and recorded three times per week after grouping.
# The individual relative tumor volume (RTV) was calculated as follows: RTV=Vt/V0, where Vt is the volume on each day, and V0 is the volume at the beginning of the treatment.
# [2] = test system: immune cells in Pan02 tumors; assay: FACS analysis of Pan02 tumors; assay type: in vivo, mouse; conditions: Day 34, oxaliplatin 6 mg/kg i.p. BIW, AT-0174 120 mg/kg p.o. QD
# Protocol: On Day 34, all tumor-bearing mice were sacrificed, and tumors were collected for FACS analysis. FACS panels were:
# Panel A: L/D, CD45, CD3, CD4, CD8, CD11b, CD25, IFN-γ, Foxp3.
# Panel B: L/D, CD45, CD3, CD11b, NKG2D, F4/80.
# Flow cytometry was conducted using a Beckman Cytoflex LX and antibodies from Thermofisher and Biolegend, using standard methods.
# [3] = Body weight and clinical observations, Pan02 syngeneic model; assay type: in vivo, mouse; conditions: for Body weight, Mean: oxaliplatin 6 mg/kg i.p. BIW, AT-0174 120 mg/kg p.o. QD Day 7-32
# Protocol: as §1, §2
# Body weight: Mice body weights were measured and recorded three times per week after grouping. Animals were also weighed in the event of accidental death or near-death euthanasia.
compound,measurement,setting,value
N.N.[Cl][Pt][Cl] [cisplatin],GI50 concentration in resistant clones,LLC-CR cells; LLC-CR cells,~2 µg/mL
same,fold resistance of LLC-CR,LLC-CR cells; LLC-CR versus parental LLC,3-5 fold
same,50% growth inhibition (GI50) concentration,[1],0.4 µg/mL
O=C1[O][Pt]2([NH][C@@H]3CCCC[C@H]3[NH]2)[O]C1=O [Oxaliplatin],"tumor volume, Mean","Pan02 tumors; Pan02, day 0",63.84 mm^3
same,"tumor volume, Mean","Pan02 tumors; Pan02, day 4",80.36 mm^3
same,"tumor volume, Mean","Pan02 tumors; Pan02, day 7",108.77 mm^3
same,"tumor volume, Mean","Pan02 tumors; Pan02, day 11",152.24 mm^3
same,"tumor volume, Mean","Pan02 tumors; Pan02, day 14",250.08 mm^3
same,"tumor volume, Mean","Pan02 tumors; Pan02, day 18",410.18 mm^3
same,"tumor volume, Mean","Pan02 tumors; Pan02, day 21",601.42 mm^3
same,"tumor volume, Mean","Pan02 tumors; Pan02, day 25",735.54 mm^3
same,"tumor volume, Mean","Pan02 tumors; Pan02, day 28",912.95 mm^3
same,"tumor volume, Mean","Pan02 tumors; Pan02, day 32",1316.29 mm^3
same,"tumor volume, Mean","Pan02 tumors; Pan02, day 34",1507.92 mm^3
same,anti-tumor response,"Pan02 tumors; Pan02 model, compared with the vehicle group",little anti-tumor response
same,CD4+ Tregs,[2],25.40%
same,CD8+ CD3+ Tcells,[2],31.62%
same,"Body weight, Mean","[3]; Pan02, day 4",21.21 g
same,"Body weight, Mean","[3]; Pan02, day 11",21.10 g
same,"Body weight, Mean","[3]; Pan02, day 25",23.00 g
same,"Body weight, Mean","[3]; Pan02, day 28",22.00 g
same,"Body weight, Mean","[3]; Pan02, day 32",22.65 g
same,"Body weight, Mean","[3]; Pan02, day 34",23.31 g
same,body weight loss / tolerability,[3]; Pan02 model,Slight body weight loss
